According to patent publication US11214835B1, “Methods and compositions for diagnosis and management of neurodegerative diseases” (UNIVERSITY OF SOUTH FLORIDA, priority 2017, dated 2022):

Tested on: GAS5 lncRNA
Test: γ-AApeptide OBOC combinatorial library screen with fluorescein tagged GAS5 oligonucleotide, hits validated in vitro
Type: binding
Settings: fluorescein tagged GAS5 oligonucleotide probe, tRNA as control
Source text: The interaction between UPF1 and GAS5 was disrupted using a γ-AApeptide based one-bead-one-compound (OBOC) combinatorial library (Wu H, Li Y, Bai G, Niu Y, Qiao Q, Tipton J D, Cao C, Cai J. gamma-AApeptide-based small-molecule ligands that inhibit Abeta aggregation. Chemical communications. 2014; 50(40):5206-8. doi: 10.1039/c3cc46685j. PubMed PMID: 24158240). The γ-AApeptide is a peptidomimetic with side chains for chemical diversity and are resistant to proteolytic cleavage. To screen the compound library, a probe that contained a fluorescein tagged oligonucleotide was synthesized. The probe spanned 30 nucleotides on either side of the UAA sequences on GAS5 (FIG. 13) The fluorescein was attached to the 5′end (beginning of oligonucleotide probe sequence). The nucleotide sequence within the GAS5 IncRNA that the oligonucleotide probe binds to can be about 100% identical to […] (SEQ ID NO: 4), which is nucleotides 541 to 651 of SEQ ID NO: 1. The underlined regions indicate the UAA that is the target regions. As such, the oligonucleotide probe was designed to flank both sides of these target regions.
The length of oligonucleotide was required to maintain stem loop structure to specifically bind to GAS5. Further, we modeled the oligonucleotide (RNAfold software) to evaluate its folding and verified absence of any unwanted secondary structures. The backbone was modified by 2′-MOE (2′-O-methoxyethylribose), which protects it from degradation and a fluoroscein tag was attached to the 5′end to aid in screening. The oligonucleotide probe was used to screen 160,000 molecules in the combinatorial library using tRNA as control (as tRNA has similar stem loop secondary structures). […] The compound having a structure according to Formula 3 was determined to have a chemical formula of C68H92N10O9S, a mass of about 1224.6769, and a molecular weight of 1225.6050. The compound having a structure according to Formula 14 was determined to have a chemical formula of C63H85N9O13S, a mass of about 1207.5988, and a molecular weight of 1208.4830. […]

SMILES	ability to bind GAS5 (identified and validated from library screen)
CC(C)C[C@H]1CN(C(=O)CC2CC2)CC(=O)N[C@@H](CCCCN)CN(C(=O)CCc2ccccc2)CC(=O)N[C@@H](Cc2ccccc2)CN(CC(N)=O)C(=O)CCSCc2ccc(cc2)C(=O)N[C@@H](Cc2ccccc2)CN(C(=O)CC2CC2)CC(=O)N1 [Formula G5-1397]	able to bind GAS5
NCCCC[C@H]1CN(C(=O)CCc2ccccc2)CC(=O)N[C@@H](CCC(=O)O)CN(CC(N)=O)C(=O)CCSCc2ccc(cc2)C(=O)N[C@@H](CCC(=O)O)CN(C(=O)CCC(=O)O)CC(=O)N[C@@H](CCCCN)CN(C(=O)CCCN)CC(=O)N1 [NPG567]	can bind GAS5
